{"source": "ChEMBL document CHEMBL1201862", "about": "“PubChem BioAssay data set” (2004)", "key": {"[1]": {"target": "Disintegrin and metalloproteinase domain-containing protein 17 (Homo sapiens, UniProt P78536)", "sequence (P78536 whole entry, the tested form may be a part)": "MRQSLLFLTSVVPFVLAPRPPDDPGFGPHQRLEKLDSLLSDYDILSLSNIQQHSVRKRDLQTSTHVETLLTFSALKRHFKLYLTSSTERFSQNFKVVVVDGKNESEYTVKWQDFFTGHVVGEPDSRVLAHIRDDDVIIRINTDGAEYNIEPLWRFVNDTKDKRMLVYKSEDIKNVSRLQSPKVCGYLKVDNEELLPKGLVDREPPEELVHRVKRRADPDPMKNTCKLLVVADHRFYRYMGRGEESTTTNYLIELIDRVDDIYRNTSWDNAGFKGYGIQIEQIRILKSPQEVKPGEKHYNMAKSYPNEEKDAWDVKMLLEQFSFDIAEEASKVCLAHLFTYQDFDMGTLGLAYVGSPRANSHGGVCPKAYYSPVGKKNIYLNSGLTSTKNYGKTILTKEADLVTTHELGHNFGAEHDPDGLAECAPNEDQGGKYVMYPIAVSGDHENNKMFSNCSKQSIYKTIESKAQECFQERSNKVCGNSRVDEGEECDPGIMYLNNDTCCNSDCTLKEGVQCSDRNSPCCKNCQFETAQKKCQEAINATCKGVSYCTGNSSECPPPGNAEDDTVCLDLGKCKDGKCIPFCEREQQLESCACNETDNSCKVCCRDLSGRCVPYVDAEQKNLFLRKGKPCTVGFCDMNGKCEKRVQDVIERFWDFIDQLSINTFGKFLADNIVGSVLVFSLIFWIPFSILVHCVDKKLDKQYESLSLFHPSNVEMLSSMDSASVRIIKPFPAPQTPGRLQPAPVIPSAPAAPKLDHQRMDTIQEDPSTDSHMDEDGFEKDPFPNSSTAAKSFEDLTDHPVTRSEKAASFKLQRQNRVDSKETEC", "experiment": "ADAM17 protease inhibitors, dose response, counter-screen for ADAM10 exosite inhibitor project, biochemical, quenched FRET substrate (AID 743253)"}, "[2]": {"experiment": "ADAM10 inhibitors, peptide cleavage, dose response, biochemical, QFRET (AID 743254);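 note: EDANS fluorescence gain as the protease cuts the substrate; inhibitor potency against ADAM10 proteolytic activity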"}, "[3]": {"target": "Induced myeloid leukemia cell differentiation protein Mcl-1 (Homo sapiens, UniProt Q07820)", "sequence (Q07820 whole entry)": "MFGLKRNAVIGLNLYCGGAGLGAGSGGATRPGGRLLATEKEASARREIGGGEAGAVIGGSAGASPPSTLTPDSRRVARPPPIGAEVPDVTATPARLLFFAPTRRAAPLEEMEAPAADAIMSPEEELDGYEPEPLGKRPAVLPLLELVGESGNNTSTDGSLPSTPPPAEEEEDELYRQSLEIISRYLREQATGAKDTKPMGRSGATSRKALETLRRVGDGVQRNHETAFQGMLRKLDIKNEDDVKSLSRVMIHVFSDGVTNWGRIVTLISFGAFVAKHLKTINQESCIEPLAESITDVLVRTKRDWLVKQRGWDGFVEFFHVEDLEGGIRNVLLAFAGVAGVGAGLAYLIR", "type": "functional"}, "[4]": {"experiment": "cytotoxicity toward NIH3T3 fibroblasts, dose response, counter-screen, cell-based, ATP luminescence, mouse fibroblasts (AID 2010);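 note: cells exposed to compound for about 90 hours before reading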", "type": "functional"}, "[5]": {"experiment": "A Cell Based Secondary Assay To Explore Cytotoxicity of Compounds that Sensitize Mycobacterium Tuberculosis to Beta-Lactam Antibiotics.", "type": "functional"}, "[6]": {"experiment": "inhibitors of intracellular T. cruzi replication, confirmation, NIH3T3 host cells, beta-gal luminescence (AID 2044);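 note: luminescent beta-galactosidase reporter signal from transgenic T. cruzi replicating inside host cells; inhibitors lower the luminescence signal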", "type": "functional, cell-based"}, "[7]": {"target": "T1, DNA repair protein RAD52 homolog (Homo sapiens, UniProt P43351)", "T1 sequence (P43351 whole entry)": "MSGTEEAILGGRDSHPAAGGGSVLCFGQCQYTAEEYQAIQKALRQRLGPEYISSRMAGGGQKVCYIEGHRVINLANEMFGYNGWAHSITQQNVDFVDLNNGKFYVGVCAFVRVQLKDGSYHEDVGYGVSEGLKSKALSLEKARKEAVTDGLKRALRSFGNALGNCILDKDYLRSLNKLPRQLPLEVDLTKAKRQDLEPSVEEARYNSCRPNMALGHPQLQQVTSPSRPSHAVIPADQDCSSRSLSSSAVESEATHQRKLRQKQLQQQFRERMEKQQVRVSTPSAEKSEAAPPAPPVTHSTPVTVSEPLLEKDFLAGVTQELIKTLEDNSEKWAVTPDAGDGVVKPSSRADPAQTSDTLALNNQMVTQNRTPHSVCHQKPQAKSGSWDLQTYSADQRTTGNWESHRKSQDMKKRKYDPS", "type": "functional, biochemical"}, "[8]": {"target": "T2, DNA repair and recombination protein RAD54-like (Homo sapiens, UniProt Q92698)", "T2 sequence (Q92698 whole entry)": "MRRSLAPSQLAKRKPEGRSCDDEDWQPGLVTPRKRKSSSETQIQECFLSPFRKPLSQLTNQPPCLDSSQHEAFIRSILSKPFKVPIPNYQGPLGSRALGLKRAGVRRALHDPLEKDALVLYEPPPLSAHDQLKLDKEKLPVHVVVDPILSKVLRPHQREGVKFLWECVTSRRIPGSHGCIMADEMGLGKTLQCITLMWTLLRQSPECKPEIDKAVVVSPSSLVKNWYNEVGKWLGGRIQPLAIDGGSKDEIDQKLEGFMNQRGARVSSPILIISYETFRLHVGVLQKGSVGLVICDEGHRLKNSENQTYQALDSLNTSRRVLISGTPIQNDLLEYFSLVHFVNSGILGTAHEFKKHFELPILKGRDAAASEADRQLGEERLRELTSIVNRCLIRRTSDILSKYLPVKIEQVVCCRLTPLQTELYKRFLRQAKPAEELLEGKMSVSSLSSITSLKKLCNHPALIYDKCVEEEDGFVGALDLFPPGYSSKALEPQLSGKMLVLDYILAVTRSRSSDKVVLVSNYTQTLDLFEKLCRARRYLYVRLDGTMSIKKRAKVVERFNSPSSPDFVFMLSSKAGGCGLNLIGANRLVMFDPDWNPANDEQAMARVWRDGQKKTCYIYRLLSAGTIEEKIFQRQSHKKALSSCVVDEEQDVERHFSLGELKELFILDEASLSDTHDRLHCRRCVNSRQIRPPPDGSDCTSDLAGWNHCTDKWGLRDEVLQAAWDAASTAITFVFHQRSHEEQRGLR", "experiment": "inhibitors of human RAD54 branch migration, confirmation, biochemical, fluorescence, cherry-picked samples, dose series (AID 651657)", "type": "functional"}, "[9]": {"tested_on": "BJ", "experiment": "cells", "type": "functional, cell-based", "conditions": "Homo sapiens"}, "[10]": {"experiment": "cytotoxicity toward DRD oncogenic fibroblasts, dose response, cell-based, non-viral oncogenic, luminescence (AID 1934)", "type": "functional", "conditions": "Homo sapiens"}, "[11]": {"tested_on": "BJ", "experiment": "cytotoxicity toward BJ-TERT fibroblasts, dose response, cell-based, RAS-independent, luminescence (AID 1933)", "type": "functional", "conditions": "Homo sapiens"}, "[12]": {"experiment": "Fluorescence-based cell-based high throughput dose response assay for inhibitors of the interaction of nucleotide-binding oligomerization domain containing 2 (NOD2) and the receptor-interacting serine-threonine kinase 2 (RIPK2).", "type": "functional", "conditions": "Homo sapiens"}, "[13]": {"tested_on": "BJ", "experiment": "cytotoxicity toward BJ-TERT-LT-ST fibroblasts, dose response, cell-based, RAS-independent, luminescence (AID 1935);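 note: BJ fibroblasts immortalized with TERT plus LT and ST oncogenes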", "type": "functional", "conditions": "Homo sapiens"}, "[14]": {"target": "T3, Microphthalmia-associated transcription factor (Homo sapiens, UniProt O75030)", "T3 sequence (O75030 whole entry)": "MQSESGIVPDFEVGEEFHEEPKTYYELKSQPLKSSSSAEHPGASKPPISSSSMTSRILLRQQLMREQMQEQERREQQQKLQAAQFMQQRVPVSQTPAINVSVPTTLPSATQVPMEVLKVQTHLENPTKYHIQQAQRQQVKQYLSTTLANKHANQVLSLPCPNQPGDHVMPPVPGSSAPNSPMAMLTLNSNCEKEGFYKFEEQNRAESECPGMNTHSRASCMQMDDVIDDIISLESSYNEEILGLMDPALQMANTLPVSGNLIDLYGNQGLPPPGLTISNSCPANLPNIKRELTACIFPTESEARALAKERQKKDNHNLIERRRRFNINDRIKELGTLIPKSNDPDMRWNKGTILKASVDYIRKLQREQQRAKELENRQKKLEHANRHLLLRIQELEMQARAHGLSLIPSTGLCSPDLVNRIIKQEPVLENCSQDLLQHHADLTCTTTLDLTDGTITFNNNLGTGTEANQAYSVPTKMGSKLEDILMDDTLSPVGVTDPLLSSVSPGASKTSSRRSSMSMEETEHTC", "experiment": "TRPM1 promoter luciferase signal decrease, dose response, MITF inhibitor project, cell-based, SK-MEL-5, cherry-picked, set 3 (AID 493073)", "type": "functional"}, "[15]": {"target": "T4, Alkaline phosphatase, tissue-nonspecific isozyme (Homo sapiens, UniProt P05186)", "T4 sequence (P05186 whole entry)": "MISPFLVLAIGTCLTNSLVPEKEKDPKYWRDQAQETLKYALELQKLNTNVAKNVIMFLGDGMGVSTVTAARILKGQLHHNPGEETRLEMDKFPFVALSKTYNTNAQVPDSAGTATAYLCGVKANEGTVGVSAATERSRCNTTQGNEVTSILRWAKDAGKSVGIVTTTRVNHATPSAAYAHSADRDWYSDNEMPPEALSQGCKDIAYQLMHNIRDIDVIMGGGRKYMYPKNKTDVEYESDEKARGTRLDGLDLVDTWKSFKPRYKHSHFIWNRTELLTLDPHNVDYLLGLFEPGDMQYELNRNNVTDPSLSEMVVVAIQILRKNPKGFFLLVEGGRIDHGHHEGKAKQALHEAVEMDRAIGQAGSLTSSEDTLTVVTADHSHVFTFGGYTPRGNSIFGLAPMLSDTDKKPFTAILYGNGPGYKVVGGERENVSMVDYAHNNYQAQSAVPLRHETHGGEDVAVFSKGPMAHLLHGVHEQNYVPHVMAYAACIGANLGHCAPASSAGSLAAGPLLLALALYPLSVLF", "experiment": "human TNAP enzyme inhibitors, SAR follow-up, biochemical, luminescent, dose response (AID 1056)"}, "[16]": {"target": "Glyceraldehyde-3-phosphate dehydrogenase (Homo sapiens, UniProt P04406)", "sequence (P04406 whole entry)": "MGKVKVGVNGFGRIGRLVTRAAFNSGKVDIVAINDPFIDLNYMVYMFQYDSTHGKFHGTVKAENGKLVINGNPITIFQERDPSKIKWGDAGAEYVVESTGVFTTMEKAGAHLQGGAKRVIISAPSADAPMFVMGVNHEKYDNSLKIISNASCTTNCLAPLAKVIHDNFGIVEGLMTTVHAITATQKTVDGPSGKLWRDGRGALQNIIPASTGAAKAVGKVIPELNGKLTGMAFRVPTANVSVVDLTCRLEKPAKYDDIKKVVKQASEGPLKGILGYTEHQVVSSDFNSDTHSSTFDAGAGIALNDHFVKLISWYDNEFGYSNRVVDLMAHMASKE"}, "[17]": {"target": "T5, Estrogen receptor (Homo sapiens, UniProt P03372)", "T5 sequence (P03372 whole entry)": "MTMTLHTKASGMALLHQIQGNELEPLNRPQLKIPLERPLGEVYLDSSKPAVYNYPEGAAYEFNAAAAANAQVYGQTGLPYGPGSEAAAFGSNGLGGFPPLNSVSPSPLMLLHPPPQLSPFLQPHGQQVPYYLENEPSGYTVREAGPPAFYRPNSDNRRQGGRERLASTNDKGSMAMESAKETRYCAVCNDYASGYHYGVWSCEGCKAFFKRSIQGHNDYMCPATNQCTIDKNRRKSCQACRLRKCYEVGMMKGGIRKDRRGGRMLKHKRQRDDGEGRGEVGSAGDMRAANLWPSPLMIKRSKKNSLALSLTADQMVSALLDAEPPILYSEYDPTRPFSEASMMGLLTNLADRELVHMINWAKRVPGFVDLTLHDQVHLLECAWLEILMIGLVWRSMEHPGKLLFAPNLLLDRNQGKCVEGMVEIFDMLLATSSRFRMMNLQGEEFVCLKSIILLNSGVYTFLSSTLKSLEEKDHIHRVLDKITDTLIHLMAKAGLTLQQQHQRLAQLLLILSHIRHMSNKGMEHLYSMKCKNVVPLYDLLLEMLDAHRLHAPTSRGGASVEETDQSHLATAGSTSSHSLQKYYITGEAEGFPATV"}, "[18]": {"target": "T6, Lytic switch protein BZLF1 (Epstein-Barr virus (strain B95-8) (HHV-4) (Human herpesvirus 4), UniProt P03206)", "T6 sequence (P03206 whole entry)": "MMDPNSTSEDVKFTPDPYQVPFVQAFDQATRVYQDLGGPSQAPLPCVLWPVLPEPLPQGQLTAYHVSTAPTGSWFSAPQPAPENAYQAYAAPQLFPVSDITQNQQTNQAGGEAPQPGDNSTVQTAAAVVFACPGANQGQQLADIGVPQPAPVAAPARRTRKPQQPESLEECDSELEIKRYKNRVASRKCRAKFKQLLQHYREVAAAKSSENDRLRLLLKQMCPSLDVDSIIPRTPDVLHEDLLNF", "experiment": "EBV ZTA inhibitors, dose response, counter-screen for EBNA-1 inhibitor project, biochemical, fluorescence polarization, Epstein-Barr virus, 1536-well (AID 2377);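 note: fluorescence polarization of Cy5-labelled ZRE DNA probe bound by purified Zta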", "parameters": "species or system human gammaherpesvirus 4"}, "[19]": {"target": "T7, Epstein-Barr nuclear antigen 1 (Epstein-Barr virus (strain B95-8) (HHV-4) (Human herpesvirus 4), UniProt P03211)", "T7 sequence (P03211 whole entry)": "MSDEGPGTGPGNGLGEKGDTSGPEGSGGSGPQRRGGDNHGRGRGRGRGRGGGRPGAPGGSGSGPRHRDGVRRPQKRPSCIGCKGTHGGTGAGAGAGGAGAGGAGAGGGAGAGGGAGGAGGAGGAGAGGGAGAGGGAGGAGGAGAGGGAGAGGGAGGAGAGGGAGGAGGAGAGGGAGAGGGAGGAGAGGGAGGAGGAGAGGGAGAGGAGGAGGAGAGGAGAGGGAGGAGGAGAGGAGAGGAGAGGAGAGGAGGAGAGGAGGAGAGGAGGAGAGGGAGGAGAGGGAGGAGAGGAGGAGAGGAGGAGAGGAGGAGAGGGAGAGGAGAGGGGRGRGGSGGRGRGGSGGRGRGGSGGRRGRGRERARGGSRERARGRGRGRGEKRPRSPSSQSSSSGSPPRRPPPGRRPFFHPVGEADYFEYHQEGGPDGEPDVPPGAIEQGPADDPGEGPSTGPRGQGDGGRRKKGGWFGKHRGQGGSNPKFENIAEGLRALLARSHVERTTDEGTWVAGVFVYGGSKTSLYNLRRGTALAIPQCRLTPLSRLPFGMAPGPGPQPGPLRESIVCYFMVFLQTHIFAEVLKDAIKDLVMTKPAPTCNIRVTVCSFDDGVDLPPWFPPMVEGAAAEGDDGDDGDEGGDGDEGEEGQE", "experiment": "EBNA-1 inhibitors, dose response, biochemical, fluorescence polarization, 1536-well (AID 2381);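 note: fluorescence polarization of a Cy5 DNA probe bound by EBNA-1 protein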", "parameters": "species or system human gammaherpesvirus 4"}}, "note": "Active and inactive are the calls of the source.", "data": [{"smiles": "COc1ccc(CN([C@H](CO)CC(C)C)S(=O)(=O)N(Cc2ccccc2)[C@H](CO)CC(C)C)cc1", "values": [{"measurement": "IC50", "setting": "[1]", "value": "> 69.5 µM (inactive)"}, {"measurement": "IC50", "setting": "[2]", "value": "5.93 µM (active)"}]}, {"smiles": "Cc1ccc2[nH]c(O)c(N=Nc3nc4ccccc4s3)c2c1", "values": [{"measurement": "IC50", "setting": "[3]", "value": "2.11 µM (active)"}, {"measurement": "EC50", "setting": "[4]", "value": "> 60 µM (not active)"}, {"measurement": "CC50", "setting": "[5]", "value": "39.6 µM (active)"}, {"measurement": "EC50", "setting": "[6]", "value": "3.38 µM (active)"}]}, {"smiles": "CCN(CC)CCN(C(=O)C1=COCCO1)c1nc2c(OC)ccc(OC)c2s1", "values": [{"measurement": "AC50", "setting": "[7]", "value": "8.89 µM (active)"}, {"measurement": "AC50", "setting": "[8]", "value": "23.5 µM (active)"}]}, {"smiles": "CNC(=O)COC(=O)c1ccccc1C(=O)c1ccc(Cl)c([N+](=O)[O-])c1", "values": [{"measurement": "EC50", "setting": "[9]", "value": "5.44 µM (inconclusive)"}, {"measurement": "EC50", "setting": "[10]", "value": "10 µM (inconclusive)"}, {"measurement": "EC50", "setting": "[11]", "value": "4.68 µM (active)"}, {"measurement": "IC50", "setting": "[12]", "value": "2.58 µM (active)"}, {"measurement": "EC50", "setting": "[13]", "value": "2.42 µM (inconclusive)"}, {"measurement": "AC50", "setting": "[14]", "value": "9.77 µM (active)"}]}, {"smiles": "Nc1nc(N2C(=O)C3CC=CCC3C2=O)nn1-c1ccccc1", "note": "(centres undefined)", "values": [{"measurement": "IC50", "setting": "[15]", "value": "> 100 µM (inactive)"}, {"measurement": "IC50", "setting": "[16]", "value": "> 100 µM (not active)"}, {"measurement": "IC50", "setting": "[17]", "value": "> 50 µM (not active)"}]}, {"smiles": "CCOc1cccc(NC(=O)Cn2nc(-c3ccc4c(c3)OCCO4)ccc2=O)c1", "values": [{"measurement": "IC50", "setting": "[18]", "value": "> 111 µM (not active)"}, {"measurement": "IC50", "setting": "[19]", "value": "13.7 µM (not active)"}]}]}
